Assay results: patent US7217722B2 (Kirin Beer Kabushiki Kaisha, priority 2000, dated 2007)
Where a name gives a salt, the structure may show the parent alone.

Tests used:
[1] = system: Human-derived histiocyte lymphoma (U937/CCR2); test: Leukocyte migration inhibitory activity (MCP-1 induced migration, CHEMOTAXICELL); type: cell-based; details: U937/CCR2, MCP-1, 1 hr; for inhibition at 1 µM: test compound 1 μM; for inhibition at 0.3 µM: test compound 0.3 μM
Protocol: Human-derived histiocyte lymphoma (U937/CCR2), in which mouse-derived CCR2 had been highly expressed, was suspended in a 0.1% BSA-containing RPMI 1640 medium, to which a test compound had been added (5×10^6/ml), and the suspension was incubated for 20 min. A chemical solution (500 μl) (0.1% BSA-containing RPMI 1640 medium DMSO 1%), to which an MCP-1 ligand (1 μM) and the test compound had been added, was added to a 24-well plate. CHEMOTAXICELL was put thereon, and 200 μl of the cell suspension was added to the top layer, followed by migration under 5% carbon dioxide at 37° C. for one hr. The number of cells, which had migrated to the lower chamber, was counted with a particle count analyzer (CDA-500, SYSMEX CORPORATION), and the percentage migration inhibition was calculated by the following equation; Migration inhibition (%)={1−(number of migrated cells in the presence of test compound/number of migrated cells in the absence of test compound)}×100

[2] = target: Rho kinase (fused protein of bovine Rho kinase catalyst region and glutathione S-transferase) (Bos taurus, UniProt Q28021); test: Rho kinase inhibitory activity (phosphorylation of S6 231–239 substrate, γ32P-ATP); type: biochemical; details: concentration inhibiting substrate phosphorylation by 50%
Rho kinase (fused protein of bovine Rho kinase catalyst region and glutathione S-transferase), sequence (Q28021 92-354 limits assumed): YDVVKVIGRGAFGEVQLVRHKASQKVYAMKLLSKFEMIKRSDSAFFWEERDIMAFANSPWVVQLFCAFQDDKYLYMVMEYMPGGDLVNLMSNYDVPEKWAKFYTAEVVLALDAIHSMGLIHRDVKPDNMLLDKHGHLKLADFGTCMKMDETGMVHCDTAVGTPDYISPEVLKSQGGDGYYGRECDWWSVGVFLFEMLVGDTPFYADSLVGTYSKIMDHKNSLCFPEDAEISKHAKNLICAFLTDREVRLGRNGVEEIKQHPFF
Protocol: This permits the substrate to be labeled with the radioisotope.
Thereafter, the substrate was adsorbed to a filter paper. ATP was washed away with a phosphoric acid solution, and the amount of the phosphorylated substrate was then measured with a liquid scintillation counter.

[3] = Homo sapiens, U-937, 1 h, read-out: Migration inhibition (%) ± SEM
[4] = Homo sapiens, U-937, 1 h, test compound 3 μM, read-out: Migration inhibition (%) ± SEM

SMILES | IC50 [2] | further results
Fc1cc(F)c(CN2CCCC(Nc3ccc4[nH]ncc4c3)C2)c(F)c1 (centres unmarked) [Example 282, N-(1H-5-indazolyl)-N-[1-(2,4,6-trifluorobenzyl)-3-piperidyl]amine] |  | inhibition at 1 µM [1, 3]: 29.9 ± 4.1%
CCCC(C)CN1CCCC(Nc2ccc3[nH]ncc3c2)C1 (centres unmarked) [Example 281, N-(1H-5-indazolyl)-N-[1-(2-methylpentyl)-3-piperidyl]amine] |  | inhibition at 3 µM [1, 4]: 100 ± 8.2%
c1cc(NC2CCC(NC3CC3)CC2)c2ccncc2c1 (stereo not drawn) [262 (anti), N1-Cyclopropyl-N4-(5-isoquinolyl)-1,4-cyclohexanediamine] |  | inhibition at 0.3 µM [1, 3]: 24.4 ± 8.1%; inhibition at 1 µM [1, 3]: 82.5 ± 6.69%
c1ccc(CN2CCC(Nc3ccc4[nH]ncc4c3)C2)cc1 (centres unmarked) [Example 146.HCl, N-(1-Benzyltetrahydro-1H-pyrrolyl)-N-(1H-5-indazolyl)amine] |  | Migration inhibition (%) ± SEM ([1]; test compound 3 μM, 3 µM): 74.5 ± 1.7%; Migration inhibition (%) ± SEM ([1]; test compound 30 μM, 30 µM): 97.9 ± 1.0%
COC(=O)C(c1ccc(F)c(F)c1)N1CCCC(Nc2ccc3[nH]ncc3c2)C1 (centres unmarked) [Example 294] |  | inhibition at 0.1 µM ([1]; Homo sapiens, U-937, 1 h, test compound 0.1 μM, read-out: Migration inhibition (%) ± SEM): 87.4 ± 6.4%; inhibition at 0.3 µM [1, 3]: 98.3 ± 1.4%
CCC(CC)CN1CCC(Nc2cccc3cnccc23)CC1 [Example 320, N-[1-(2-ethylbutyl)-4-piperidyl]-N-(5-isoquinolyl)amine] |  | inhibition at 1 µM [1, 3]: 82.9 ± 7%
Brc1ccc(CN2CCC(Nc3ccc4[nH]ncc4c3)CC2)cc1 [Example 22] |  | inhibition at 3 µM [1, 4]: 34.8 ± 12.4%; inhibition at 30 µM ([1]; Homo sapiens, U-937, 1 h, test compound 30 μM, read-out: Migration inhibition (%) ± SEM): 92.9 ± 1.3%
COC(=O)C(c1ccccc1)N1CCCC(Nc2ccc3[nH]ncc3c2)C1 (centres unmarked) [Example 221, methyl 2-[3-(1H-5-indazolylamino)piperidino]-2-phenylacetate] |  | inhibition at 0.03 µM ([1]; Homo sapiens, U-937, 1 h, test compound 0.03 μM, read-out: Migration inhibition (%) ± SEM): 27.5 ± 33.6%; inhibition at 0.3 µM [1, 3]: 90.8 ± 11%
Cl.c1ccc(CN2CCCC(Nc3ccc4[nH]ncc4c3)C2)cc1 (centres unmarked) [Example 21.HCl, N-(1-Benzyl-3-piperidyl)-N(1H-5-indazolyl)amine] |  | Migration inhibition (%) ± SEM ([1]; test compound 3 μM): 83.5 ± 3.3%; Migration inhibition (%) ± SEM ([1]; test compound 30 μM): 99.1 ± 0.4%
CCCNC1CCC(Nc2ccc3[nH]ncc3c2)CC1 (centres unmarked) [Example 243, N1-(1H-5-indazolyl)-N4-propyl-1,4-cyclohexanediamine] |  | inhibition at 3 µM [1, 4]: 82.8 ± 7.1%
Fc1ccc(CN2CCC(Nc3ccc4[nH]ncc4c3)CC2)cc1 [Example 137, N-[1-(4-Fluorobenzyl)-4-piperidyl]-N-(1H-5-indazolyl)amine] | 478 nM | 
O=C(NCC1CCCCC1)Nc1ccc2c(c1)C(=O)NC2=O [Example 76, N-Cyclohexylmethyl-N′-(1,3-dioxo-2,3-dihydro-1H-5-isoindolyl)urea] | 1690 nM | 
Brc1cccc(CN2CCC(Nc3ccc4[nH]ncc4c3)CC2)c1 [Example 23] | 124 nM | 
NC(=O)c1ccc(NC(=O)Nc2c(Cl)cccc2Cl)cc1 [Example 65, 4-{[(2,6-Dichloroanilino)carbonyl]amino}-benzamide] | 9000 nM | 
O=C(Nc1ccc2[nH]ncc2c1)C1CCCCC1 [Example 33] | 470 nM | 
O=C(NCc1c(F)cccc1C(F)(F)F)Nc1ccc2[nH]ncc2c1 [Example 96, N-[2-fluoro-6-(trifluoromethyl)benzyl]-N′-(1H-5-indazolyl)urea] | 230 nM | 
Clc1ccccc1CN1CCCC(Nc2ccc3[nH]ncc3c2)C1 (centres unmarked) [Example 161, N-[1-(2-Chlorobenzyl)-3-piperidyl]-N-(1H-5-indazolyl)amine] | 13 nM | 
CCOC(=O)c1cc(Cl)c(OCC(=O)Nc2ccncc2)c(Cl)c1 [Example 26, Ethyl 3,5-dichloro-4-[2-oxo-2-(4-pyridylamino)ethoxy]benzoate] | 1030 nM | 
O=C(Nc1ccncc1)Nc1c(F)cccc1F [Example 8, N-(2,6-Difluorophenyl)-N′-(4-pyridyl)urea] | 2000 nM | 
O=C(Cc1ccc2c(c1)OCO2)Nc1ccc2[nH]ncc2c1 [Example 45, N1-(1H-5-Indazolyl)-2-(1,3-benzodioxol-5-yl)acetamide] | 153 nM | 
Cc1ccc(CN2CCC(Nc3ccc4[nH]ncc4c3)CC2)cc1 [Example 139, N-(1H-5-Indazolyl)-N-[1-(4-methylbenzyl)-4-piperidyl]amine] | 250 nM | 
COc1cc(CN2CCC(Nc3ccc4[nH]ncc4c3)CC2)cc(OC)c1 [Example 143, N-[1-(3,5-Dimethoxybenzyl)-4-piperidyl]-N-(1H-5-indazolyl)amine] | 399 nM | 
COC(=O)c1ccc(CN2CCC(Nc3ccc4[nH]ncc4c3)CC2)cc1 [Example 148, Methyl 4-{[4-(1H-5-indazolylamino)piperidino]methyl}benzoate] | 166 nM | 
Nc1cccc(CNC(=O)Nc2ccc3c(c2)C(=O)NC3=O)c1 [Example 112, N-(3-Aminobenzyl)-N′-(1,3-dioxo-2,3-dihydro-1H-5-isoindolyl)urea] | 310 nM | 

SMILES | IC50 [2] | further results
c1ccc(COc2ccc(CN3CCC(Nc4ccc5[nH]ncc5c4)CC3)cc2)cc1 [Example 142, N-{1-[4-(Benzyloxy)benzyl]-4-piperidyl}-N-(1H-5-indazolyl)amine] | 655 nM | 
O=C(NCc1c(F)cccc1F)Nc1ccncc1 [Example 61, N-(2,6-Difluorobenzyl)-N′-(4-pyridyl)urea] | 6950 nM | 
O=C(NCc1ccccc1)Nc1ccc2c(c1)C(=O)NC2=O [Example 73, N-Benzyl-N′-(1,3-dioxo-2,3-dihydro-1H-5-isoindolyl)urea] | 410 nM | 
O=C(Nc1ccncc1)Nc1c(Cl)cc(Cl)cc1Cl [Example 1, N-(4-Pyridyl)-N′-(2,4,6-trichlorophenyl)urea] | 200 nM | 
CCCN[C@H]1CC[C@H](Nc2cccc3cnccc23)CC1 [260 (anti)] |  | inhibition at 1 µM [1, 3]: 77.4 ± 14.4%
Clc1cc2c(cc1CN1CCC(Nc3ccc4[nH]ncc4c3)CC1)OCO2 [Example 144, N-{1-[(6-Chloro-1,3-benzodioxol-5-yl)methyl]-4-piperidyl}-N-(1H-5-indazolyl)amine] | 453 nM | 
O=C(CCc1ccc(O)cc1)Nc1ccc2[nH]ncc2c1 [Example 47, N1-(1H-5-Indazolyl)-3-(4-hydroxyphenyl)-propaneamide] | 735 nM | 
COc1ccc(CN2CCC(Nc3ccc4[nH]ncc4c3)C2)cc1 (centres unmarked) [Example 156, N-(1H-5-Indazolyl)-N-[1-(4-methoxybenzyl)tetrahydro-1H-3-pyrrolyl]amine] | 2 nM | 
O=C(Nc1ccncc1)Nc1ccc(Br)cc1F [Example 60, N-(4-Bromo-2-fluorophenyl)-N′-(4-pyridyl)urea] | 11000 nM | 
c1ccc(NC2CCC(Nc3ccc4[nH]ncc4c3)CC2)cc1 (centres unmarked) [Example 172, N1-(1H-5-Indazolyl)-N4-phenyl-1,4-cyclohexanediamine] | 265 nM | 
O=C(NCc1c(F)ccc(F)c1F)Nc1ccncc1 [Example 108, N-(Pyridyl)-N′-(2,3,6-trifluorobenzyl)urea] | 3800 nM | 
c1cc2[nH]ncc2cc1NC1CCCCC1 [Example 129, N-Cyclohexyl-N-(1H-5-indazolyl)amine] | 670 nM | 
Cc1ccc(CN2CCC(Nc3ccc4[nH]ncc4c3)C2)cc1 (centres unmarked) [Example 157, N-(1H-5-Indazolyl)-N-[1-(4-methylbenzyl)tetrahydro-1H-3-pyrrolyl]amine] | 22 nM | 
CCN1CCC(Nc2ccc3[nH]ncc3c2)CC1 [Example 125, N-(1-Ethyl-4-piperidyl)-N-(1H-5-indazolyl)-amine] | 747 nM | 
Fc1cccc(Cl)c1CN1CCC(Nc2ccc3[nH]ncc3c2)CC1 [Example 150, N-[1-(2-Chloro-6-fluorobenzyl)-4-piperidyl]-N-(1H-5-indazolyl)amine] | 821 nM | 
O=C(Nc1ccncc1)Nc1c(F)cc(F)cc1Br [Example 57] | 1110 nM | 
O=C(Nc1ccccc1)Nc1ccc2c(c1)C(=O)NC2=O [Example 72, N1-(1,3-Dioxo-2,3-dihydro-1H-5-isoindolyl)-N′-phenylurea] | 900 nM | 
O=C(Nc1ccncc1)Nc1c(Cl)cccc1Cl [Example 9, N-(2,6-Dichlorophenyl)-N′-(4-pyridyl)urea] | 850 nM | 
O=C(CNCc1ccccc1)Nc1ccc2[nH]ncc2c1 [Example 173, N1-(1H-5-Indazolyl)-2-(benzylamino)acetamide] | 446 nM | 
O=C(Nc1ccncc1)NC1CCCCC1 [Example 19, N-Cyclohexyl-N′-(4-pyridyl)urea] | 7260 nM | 
O=C(Nc1ccncc1)Nc1ccc(F)cc1C(F)(F)F [Example 59, N-[4-Fluoro-2-(trifluoromethyl)phenyl]-N′-(4-pyridyl)urea] | 7270 nM | 
Nc1ccccc1CNC(=O)Nc1ccc2c(c1)C(=O)NC2=O [Example 87] | 180 nM | 
O=C(Cc1ccc(O)c(O)c1)Nc1ccc2[nH]ncc2c1 [Example 44, N1-(1H-5-Indazolyl)-2-(3,4-dihydroxyphenyl)acetamide] | 394 nM | 
